Experiment [1] has as its target Trace amine-associated receptor 1 (Mus musculus, UniProt Q923Y8). Description: (§1) Radioligand Binding Assay: Membrane Preparation and Radioligand Binding. HEK-293 cells stably expressing mouse TAA 1 were maintained at 37 C and 5% C02 in DMEM high glucose medium, containing fetal calf serum (10%, heat inactivated for 30 min at 56 C), penicillin/streptomycin (1%), and 375 ug/ml geneticin (Gibco). Cells were released from culture flasks using trypsin/ EDTA, harvested, washed twice with ice-cold PBS (without Ca2+ and Mg2+), pelleted at 1,000 rpm for 5 min at 4 C, frozen and stored at -80 C. Frozen pellets were suspended in 20 ml HEPES-NaOH (20 mM, pH 7.4) containing 10 mM EDTA and homogenized with a Polytron (PT 6000, Kinematica) at 14,000 rpm for 20 s. The homogenate was centrifuged at 48,000 x g for 30 min at 4 C. Subsequently, the supernatant was removed and discarded, and the pellet resuspended in 20 ml HEPES-NaOH (20 mM, pH 7.4) containing 0.1 mM EDTA using the Polytron (20 s at 14,000 rpm). Type of experiment: cell membranes, HEK293.

Experiment [2] concerns the target Trace amine-associated receptor 1 (Rattus norvegicus, UniProt Q923Y9). The experiment is described as §1, with “Assay:” for “Assay: Membrane Preparation and Radioligand Binding.”, “rat TAAR1” for “mouse TAA 1”, “CO2” for “C02”, “rpm). This procedure was repeated and the final pellet resuspended in HEPES-NaOH containing 0.1 mM EDTA.” for “rpm).”. Type of experiment: cell-based, HEK293.

Our source for the Ki values is ChEMBL document CHEMBL3638970, “Substituted benzamide derivatives” (2015).

The structures appear in SMILES notation.

Chain of Trace amine-associated receptor 1 (Rattus norvegicus, UniProt Q923Y9) (Q923Y9 whole entry): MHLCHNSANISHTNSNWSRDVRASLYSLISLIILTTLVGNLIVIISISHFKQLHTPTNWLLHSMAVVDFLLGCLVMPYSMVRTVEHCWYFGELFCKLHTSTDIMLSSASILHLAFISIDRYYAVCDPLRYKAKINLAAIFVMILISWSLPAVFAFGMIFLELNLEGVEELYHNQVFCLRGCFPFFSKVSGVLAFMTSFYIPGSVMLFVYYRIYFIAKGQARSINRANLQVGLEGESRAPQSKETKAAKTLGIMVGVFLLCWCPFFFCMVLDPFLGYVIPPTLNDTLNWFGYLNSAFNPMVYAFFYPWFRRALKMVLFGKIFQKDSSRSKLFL
Chain of Trace amine-associated receptor 1 (Mus musculus, UniProt Q923Y8) (Q923Y8 whole entry): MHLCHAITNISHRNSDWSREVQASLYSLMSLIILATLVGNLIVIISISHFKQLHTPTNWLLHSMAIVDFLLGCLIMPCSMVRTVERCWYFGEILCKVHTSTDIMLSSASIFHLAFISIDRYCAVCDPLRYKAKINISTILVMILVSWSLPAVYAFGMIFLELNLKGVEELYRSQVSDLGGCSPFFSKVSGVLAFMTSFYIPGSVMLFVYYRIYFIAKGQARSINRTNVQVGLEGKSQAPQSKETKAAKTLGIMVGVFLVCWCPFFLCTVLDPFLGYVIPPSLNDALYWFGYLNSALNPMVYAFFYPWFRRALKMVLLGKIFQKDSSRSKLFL

Turning to `N#Cc1cccc(CNC(=O)Nc2ccc([C@H]3CNCCO3)cc2F)c1`, the results for the Ki in experiment [1] and in experiment [2] were 3.1 nM and 67.9 nM, respectively.

In the case of `COc1ccc(C#N)cc1NC(=O)Nc1ccc([C@@H]2CNCCO2)cc1F`, the Ki in experiment [1] was 4.4 nM; in experiment [2] it was 5.9 nM.

Consider `CCOc1ccc(C#N)cc1NC(=O)Nc1ccc([C@H]2CNCCO2)cc1F`, for which the values for the Ki in experiment [1] and in experiment [2] were 1.8 nM and 1.9 nM, respectively.

Consider `CCOc1ccc(C#N)cc1NC(=O)Nc1ccc([C@@H]2CNCCO2)cc1F`, for which the Ki came out at 3.1 nM in experiment [1] and 3.9 nM in experiment [2].

Turning to `N#Cc1ccnc(C(=O)Nc2ccc([C@@H]3CNCCO3)cc2F)c1`, the Ki in experiment [1] was 5 nM; in experiment [2], 32.5 nM.

For the compound `N#Cc1cccc(C(=O)Nc2ccc([C@H]3CNCCO3)cc2F)n1`, the Ki in experiment [1] stood at 9.7 nM; in experiment [2], 959 nM.

In the case of `O=C(Nc1ccc([C@H]2CNCCO2)c(F)c1)c1cnn(-c2ccc(OC(F)F)cc2)c1`, the figures for the Ki in experiment [1] and in experiment [2] were 0.6 nM and 0.7 nM, respectively.

Regarding `N#Cc1cccc(C(=O)Nc2ccc([C@@H]3CNCCO3)cc2Cl)n1`, the Ki in experiment [1] was found to be 82.4 nM; in experiment [2] it was 184 nM.

Regarding `N#Cc1cccc(C(=O)Nc2ccc([C@H]3CNCCO3)cc2Cl)n1`, the figures for the Ki in experiment [1] and in experiment [2] were 27.6 nM and 565 nM, respectively.

Regarding `N#Cc1ccc(C(=O)Nc2ccc([C@H]3CNCCO3)cc2Cl)nc1`, the results for the Ki in experiment [1] and in experiment [2] were 6.3 nM and 154 nM, respectively.

With `N#Cc1ccc(C(=O)Nc2ccc([C@@H]3CNCCO3)cc2Cl)nc1`, the Ki turned out to be 12 nM in experiment [1] and 20.2 nM in experiment [2].

Consider `N#Cc1ccc(C(=O)Nc2ccc([C@H]3CNCCO3)cc2Cl)cn1`, for which the Ki in experiment [1] came to 17 nM; in experiment [2], 524 nM.

Consider `N#Cc1ccc(C(=O)Nc2ccc([C@@H]3CNCCO3)cc2Cl)cn1`, for which the figures for the Ki in experiment [1] and in experiment [2] were 25.9 nM and 410 nM, respectively.

In the case of `N#Cc1cc(Cl)cc(C(=O)Nc2ccc([C@H]3CNCCO3)cc2F)n1`, the Ki was found to be 6.3 nM in experiment [1] and 93.8 nM in experiment [2].

In the case of `O=C(Nc1ccc([C@H]2CNCCO2)c(F)c1)c1cnn(-c2ccnc(C(F)(F)F)n2)c1`, the Ki worked out at 8 nM in experiment [1] and 3.6 nM in experiment [2].

Take `O=C(Nc1ccc([C@H]2CNCCO2)c(F)c1)c1cnn(-c2cnc(C(F)(F)F)cn2)c1`: the Ki in experiment [1] stood at 4.8 nM; in experiment [2], 4 nM.
